row,melting point [°C],SMILES
1,231 to 233,CC(C)(C)c1cc(CCN=C(O)c2cc(C(O)=NCCc3cc(C(C)(C)C)c(O)c(C(C)(C)C)c3)c(C(=O)O)cc2C(=O)O)cc(C(C)(C)C)c1O
2,139 to 140,COc1cc(C2=C(C(C)(C)C)C(C)(C)CO2)cc(OC)c1Br
3,137 to 141,Cc1ccsc1C(Cc1ccccc1N)N(C)C(=O)C(C)C (centres undefined)
4,72 to 77,CC(CCCCc1ccc(F)cc1)NCc1c(CO)ccc(O)c1CO (centres undefined)
5,151 to 152,CS(=O)(=O)c1ccc(-c2c(-c3ccc(F)cc3)c(OCC(=O)c3ccccc3)nn2CC(=O)c2ccccc2)cc1
6,179 to 181,CCCCc1nc2c(c(C)c(C)n3nnnc23)n1CC(C)(C)NC(=O)OC(C)(C)C
7,198 to 199,CS(=O)(=O)CCCC(=O)NNC(=O)N1Cc2ccccc2Oc2ccc(Cl)cc21
8,169 to 172,CC(C)=CCn1ncc(-c2ccc(S(C)(=O)=O)cc2)c(-c2ccc(F)cc2)c1=O
9,165 to 168,O=C(O)COc1ccc2c(-c3ccccc3Cl)noc2c1Cl
10,120,N#Cc1ccccc1N1CCN(CCCCCC(=O)O)CC1
11,92 to 95,COc1ccc2cc([C@H](C)C(=O)OCCN(CCO[N+](=O)[O-])S(=O)(=O)c3ccc(C)cc3)ccc2c1
12,73 to 74,CCCCCCCCOc1ccc(O)c2ccccc12
13,197 to 199,O=C1c2c(O)ccc(O)c2C(=O)c2c(NCCN3CCC(O)C3)ccc(NCCN3CCC(O)C3)c21 (centres undefined)
14,146 to 148,CC(c1ccccn1)C(O)(Cn1cncn1)c1ccc(F)cc1F (centres undefined)
15,66 to 69,CSc1cc(Oc2cccc(C(F)(F)F)c2)nc(C(=O)NC(C)C)c1
16,180 to 182,CCOC(=O)c1cn(C)c2nc3cc(N4CCNC(c5ccc(N)cc5)C4)c(F)cc3cc2c1=O (racemic)
17,78 to 85,CC(C)(C)c1ccc(NC(=O)OCC2(COC(=O)Nc3ccc(C(C)(C)C)cc3)CSc3ccccc3C2=O)cc1
18,156 to 158,CCc1noc(C)c1-c1[nH]c2ccccc2c1CCCCN(C)C
19,119 to 122,CCOC(=O)C1=C(NC(=O)Nc2ccc(Cl)c(C(=O)OCC)c2)CCCC1
20,57 to 60,COc1ccc(Cl)cc1[C@]1(F)C(=O)N(C(=O)NC(C)(C)C(=O)OC(C)(C)C)c2cc(C(F)(F)F)ccc21
21,130 to 134,CC(C)(OCc1cc(-c2ccc(Cl)cc2)no1)C(=O)O
22,116,CC(C)(C)OC(=O)NCCNS(=O)(=O)c1cc([N+](=O)[O-])c(Cl)s1

# The remaining lines, values behind:
row,SMILES,melting point [°C]
1,CCn1ncc2c1ncc1c(Cl)nc3ncnn3c12,196 to 197
2,O=C(O)C1CCc2ccc([N+](=O)[O-])cc21 (centres undefined),92 to 94
3,CC(C#N)=NC(C#N)=C(N)C#N,220 to 221
4,OCC(=C(c1ccc(F)cc1)c1ccc(F)cc1)n1cnnn1,152 to 154
5,Cc1c(CO)ncnc1N1CCCC1,112 to 114
6,CCc1nnc(C=Cc2ncc([N+](=O)[O-])n2C)s1,165
7,CN1CCc2c(sc3ncn(CCO)c(=O)c23)C1,163 to 165
8,COc1c(F)cc(CCCn2nnnc2S)cc1F,64 to 65
9,CCOc1nn(C(=O)NS(=O)(=O)c2c(C)csc2C(=O)OC)c(=O)n1C,169
10,CCCCNc1cc(Cl)nnc1NN,170 to 172
11,CCOC(=O)n1nc(S(=O)(=O)Nc2c(Cl)cccc2Cl)nc1NC,202 to 203
12,COC(=O)c1nc(CCN(C)C)n2c1CN=C(c1ccccc1Cl)c1cc(Cl)ccc1-2,203 to 204
13,CC(C)(C)N1CC(c2cc(Cl)c(N)c(Cl)c2)OC1=O (centres undefined),97 to 103
14,O=C(Nc1c(Cl)cccc1Cl)N1CCN(c2cnccn2)CC1,177 to 179
15,CCC1=NCC(c2cccc(O)c2)O1 (centres undefined),< 84
16,CCOc1nc(C)nc(N2CCc3ccccc3CC2)c1C#N,106 to 109
17,C=CC1CN(S(=O)(=O)c2ccc(C)cc2)CCN1S(=O)(=O)c1ccc(C)cc1 (centres undefined),177 to 178

# Source: a melting point compilation (Tetko et al.; mined from patent text by program, amines drawn as free bases though some values may be those of a salt)
